Molecules are shown by their SMILES.

From BindingDB's records for PubMed 35073486 (The University of Queensland, 2022) come the findings set out here.

The first data set can be described thus: Inhibition of P-gp mediated doxorubicin resistance in human SW620/AD300 cells overexpressing P-gp measured after 48 hrs by MTT assay.
One may read the IC50 as the concentration at which inhibition is half-maximal. Regarding `COc1cccc2c1C(=O)c1c(O)c3c(c(O)c1C2=O)C[C@@](O)(C(=O)CO)C[C@@H]3O[C@H]1C[C@H](N)[C@H](O)[C@H](C)O1` [Adriamycin], the IC50 came to 5.75 µM.

Another data set in a line: Inhibition of P-gp mediated doxorubicin resistance in human SW620/AD300 cells overexpressing P-gp in presence of doxorubicin measured after 52 hrs by MTT assay. (Tetrazolium assays rely on reduction of a dye to a coloured formazan, in cell work by metabolically active cells.)
For the compound `C[C@@H](O)[C@@H]1CCc2c3c4c(c(O)c(O)c(C[C@@H](O)CC(=O)O)c4n21)C(=O)C=C3`, the IC50 was determined as 4.49 µM. The same measure, in the same setting: as for `COC(=O)C[C@H]1Cc2c(c(O)c3c4c(c5n(c24)[C@H]([C@@H](C)O)CC5)C=CC3=O)[C@H](C)O1`, the figure is 1.2 µM; as for `C[C@H]1Oc2c(O)c3c4c(c5n(c4c2C[C@H](CC(=O)O)O1)[C@H]([C@@H](C)O)CC5)C=CC3=O`, 5.04 µM; as for `C[C@@H]1O[C@@H](CC(=O)O)C(=O)c2c1c(O)c1c3c(c4n(c23)[C@H]([C@@H](C)O)CC4)C=CC1=O`, 1.48 µM. As for `C[C@@H]1OC(CC(=O)O)=Cc2c1c(O)c1c3c(c4n(c23)[C@H]([C@@H](C)O)CC4)C=CC1=O`, the half-inhibitory concentration (IC50) turned out to be 1.01 µM. On the same count and under the same terms, as for `C[C@H]1O[C@H](CC(=O)O)Cc2c1c(O)c1c3c(c4n(c23)[C@@H]([C@@H](C)O)CC4)C=CC1=O`, the figure is 1.53 µM; as for `C[C@H]1O[C@]2(C)CC(=O)O[C@]2(C)c2c1c(O)c1c3c(c4n(c23)[C@@H]([C@@H](C)O)CC4)C=CC1=O`, 7.58 µM; as for `C[C@H]1OC(CC(=O)O)=Cc2c1c(O)c1c3c(c4n(c23)[C@H]([C@@H](C)O)CC4)C=CC1=O`, 1.44 µM.
